Experimental data: PubChem BioAssay (NCI)
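Where inhibition never reached the appropriate level, the endpoint shown equals the highest concentration tested. Otherwise, values were interpolated linearly from a five-concentration, 48-hour dose response in 96-well plates. GI50 = concentration required for 50% inhibition of growth. TGI denotes the concentration required for complete inhibition of growth.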

How the values were obtained:
Assay in all cases: growth of human tumour cells (NCI), 48 h
[1] = system: OVCAR-4 ovarian
[2] = system: SK-MEL-2 melanoma
[3] = system: RXF 393 renal
[4] = system: DMS 273 small cell lung
[5] = system: OVCAR-3 ovarian
[6] = system: UACC-62 melanoma
[7] = system: A549 NSCLC
[8] = system: SNB-78 CNS
[9] = system: SF-268 CNS
[10] = system: SNB-19 CNS
[11] = system: KM12 colon
[12] = system: OVCAR-8 ovarian
[13] = system: NCI-H23 lung
[14] = system: HCT-116 colon
[15] = system: UACC-257 melanoma
[16] = system: 786-0 renal
[17] = system: HCT-15 colon
[18] = system: HCC-2998 colon
[19] = system: HOP-62 NSCLC
[20] = system: OVCAR-5 ovarian
[21] = system: EKVX NSCLC
[22] = system: LXFL 529 NSCLC
[23] = system: KM20L2 colon
[24] = system: NCI-H522 lung
[25] = system: M14 melanoma
[26] = system: COLO 205 colon
[27] = system: SK-OV-3 ovarian
[28] = system: U251 CNS
[29] = system: NCI-H460 lung
[30] = system: HT29 colon
[31] = system: K-562 leukemia
[32] = system: SN12C renal
[33] = system: SW-620 colon
[34] = system: HOP-18 NSCLC
[35] = system: DLD-1 colon
[36] = system: MOLT-4 leukemia
[37] = system: CCRF-CEM leukemia
[38] = system: SR leukemia
[39] = system: RPMI-8226 leukemia
[40] = system: SF-539 CNS
[41] = system: MALME-3M melanoma
[42] = system: HL-60(TB) leukemia
[43] = system: SNB-75 CNS
[44] = system: CAKI-1 renal
[45] = system: UO-31 renal
[46] = system: SF-295 CNS
[47] = system: HOP-92 NSCLC
[48] = system: ACHN renal
[49] = system: TK-10 renal
[50] = system: SK-MEL-28 melanoma
[51] = system: NCI-H226 lung
[52] = system: LOX IMVI melanoma
[53] = system: IGROV1 ovarian
[54] = system: SK-MEL-5 melanoma
[55] = system: A498 renal
[56] = system: M19-MEL melanoma
[57] = system: DMS 114 small cell lung

CCCn1c(SCCSc2c3ccccc3c(-c3nc(F)nc(F)n3)n2CCC)c2ccccc2c1-c1nc(F)nc(F)n1
TGI [1]: > 100 µM
TGI [2]: > 100 µM
TGI [3]: > 100 µM
TGI [4]: > 100 µM
TGI [5]: > 100 µM
TGI [6]: > 100 µM
TGI [7]: > 100 µM
TGI [8]: > 100 µM
TGI [9]: > 100 µM
TGI [10]: > 100 µM
TGI [11]: > 100 µM
TGI [12]: > 100 µM
TGI [13]: > 100 µM
TGI [14]: > 100 µM
TGI [15]: > 100 µM
TGI [16]: > 100 µM
TGI [17]: > 100 µM
TGI [18]: > 100 µM
TGI [19]: > 100 µM
TGI [20]: > 100 µM
TGI [21]: > 100 µM
TGI [22]: > 100 µM
TGI [23]: > 100 µM
TGI [24]: > 100 µM
TGI [25]: > 100 µM
TGI [26]: > 100 µM
TGI [27]: > 100 µM
TGI [28]: > 100 µM
TGI [29]: > 100 µM
TGI [30]: > 100 µM
TGI [31]: > 100 µM
TGI [32]: > 100 µM
TGI [33]: 32.6 µM
TGI [34]: > 100 µM
TGI [35]: 40.4 µM
TGI [36]: > 100 µM
TGI [37]: > 100 µM
TGI [38]: 60.4 µM
TGI [39]: 79.7 µM
TGI [40]: > 100 µM
TGI [41]: > 100 µM
TGI [42]: > 100 µM
TGI [43]: > 100 µM
TGI [44]: > 100 µM
TGI [45]: > 100 µM
TGI [46]: > 100 µM
TGI [47]: > 100 µM
TGI [48]: > 100 µM
TGI [49]: > 100 µM
TGI [50]: > 100 µM

O=c1cccccc1[O-].O=c1cccccc1[O-].O=c1cccccc1[O-].[Eu+3]
TGI [1]: > 100 µM
TGI [2]: > 100 µM
TGI [3]: 73.9 µM
GI50 [4]: 16.9 µM
TGI [4]: > 100 µM
TGI [5]: 48.1 µM
TGI [6]: > 100 µM
TGI [7]: > 100 µM
GI50 [8]: 20.1 µM
TGI [8]: > 100 µM
TGI [9]: > 100 µM
TGI [10]: > 100 µM
TGI [11]: > 100 µM
TGI [51]: > 100 µM
TGI [12]: 63.8 µM
TGI [13]: > 100 µM
TGI [52]: > 100 µM
TGI [14]: 76.7 µM
TGI [15]: 99.6 µM
TGI [16]: > 100 µM
TGI [17]: > 100 µM
TGI [18]: > 100 µM
GI50 [19]: 24.9 µM
TGI [19]: 90.2 µM
TGI [20]: > 100 µM
TGI [21]: > 100 µM
GI50 [23]: 27.2 µM
TGI [23]: > 100 µM
TGI [24]: 54.8 µM
TGI [25]: > 100 µM
TGI [27]: > 100 µM
GI50 [28]: 26.9 µM
TGI [28]: > 100 µM
TGI [29]: > 100 µM
TGI [30]: > 100 µM
TGI [31]: > 100 µM
GI50 [32]: 56.6 µM
TGI [32]: > 100 µM
TGI [53]: > 100 µM
TGI [33]: > 100 µM
GI50 [35]: 24 µM
TGI [35]: > 100 µM
TGI [36]: > 100 µM
TGI [37]: 78 µM
TGI [39]: > 100 µM
GI50 [40]: 30.2 µM
TGI [40]: > 100 µM
TGI [54]: > 100 µM
TGI [41]: > 100 µM
TGI [42]: 74.5 µM
TGI [43]: 79 µM
TGI [44]: > 100 µM
TGI [45]: > 100 µM
TGI [46]: > 100 µM
TGI [47]: > 100 µM
TGI [48]: > 100 µM
GI50 [55]: 78.4 µM
TGI [55]: > 100 µM
TGI [49]: > 100 µM
TGI [50]: > 100 µM

NC(CCCC(N)P(=O)(O)O)C(=O)O (stereo unspecified)
TGI [3]: > 100 µM
TGI [4]: > 100 µM
TGI [6]: > 100 µM
TGI [8]: > 100 µM
TGI [9]: > 100 µM
TGI [10]: > 100 µM
TGI [11]: > 100 µM
TGI [51]: > 100 µM
TGI [12]: > 100 µM
TGI [13]: > 100 µM
TGI [14]: > 100 µM
TGI [15]: > 100 µM
TGI [19]: > 100 µM
TGI [20]: > 100 µM
TGI [21]: > 100 µM
TGI [23]: > 100 µM
TGI [24]: > 100 µM
TGI [25]: > 100 µM
TGI [27]: > 100 µM
TGI [28]: > 100 µM
TGI [29]: > 100 µM
TGI [30]: > 100 µM
TGI [53]: > 100 µM
TGI [36]: > 100 µM
TGI [37]: > 100 µM
TGI [38]: > 100 µM
TGI [56]: > 100 µM
TGI [42]: > 100 µM
TGI [57]: > 100 µM
TGI [45]: > 100 µM
TGI [46]: > 100 µM
TGI [47]: > 100 µM
TGI [48]: > 100 µM
TGI [55]: > 100 µM
TGI [49]: > 100 µM
TGI [50]: > 100 µM
